Measured values from ChEMBL document CHEMBL5338790, “Discovery of Subcellular-Targeted Aza-BODIPY Photosensitizers for Efficient Photodynamic Antitumor Therapy” (J Med Chem, 2023).
Calls of active or inactive are those of the source. No cut-off for these calls is given here.

How the values were obtained:
[1] = test system: HeLa; test: Induction of ROS production in human HeLa cells upto 200 nM preincubated for 2 hrs followed by H2DCFDA probe exposure for 30 mins and subsequent removal of probe with photo-irradiation at 16 J/cm2 by confocal scanning microscopic analysis; assay type: functional, cell-based; settings: time 2.5 hrs
[2] = test system: HeLa; test: Antitumor activity against human HeLa cells xenografted in Balb/C nu/nu mouse assessed as reduction in tumor histology at 2.5 umol/kg, iv with photo-irradiation at 30 J/cm2 after 1 hr of compound administration measured after 24 days by H and E staining based analysis; assay type: functional, organism-based; settings: dose 2.5 µmol/kg, time 24.0 day
[3] = test system: B16-F10; test: Photodynamic cytotoxicity against mouse B16-F10 cells assessed as inhibition of cell viability incubated for 3 hrs followed by photo-irradiation at 54 J/cm2 measured after 24 hrs by CCK8 assay; assay type: functional, cell-based; settings: B16-F10, light or radiation study
[4] = test system: HeLa; test: Induction of apoptosis in human HeLa cells assessed as viable cells at 50 nM incubated for 3 hrs with photo-irradiation at 54 J/cm2 by Annexin V-FITC/PI staining based flow cytometry relative to control; assay type: functional; settings: light or radiation study, read-out: Activity
[5] = test system: HeLa; test: Induction of apoptosis in human HeLa cells assessed as necrotic cells at 25 nM incubated for 3 hrs with photo-irradiation at 54 J/cm2 by Annexin V-FITC/PI staining based flow cytometry relative to control; assay type: functional
[6] = test system: HeLa; test: Induction of apoptosis in human HeLa cells assessed as necrotic cells at 100 nM incubated for 3 hrs with photo-irradiation at 54 J/cm2 by Annexin V-FITC/PI staining based flow cytometry relative to control; assay type: functional
[7] = Drug distribution in heart of Balb/C nu/nu mouse xenografted with human HeLa cells at 2.5 umol/kg, iv measured for 24 hr by IVIS imaging analysis; assay type: ADME, organism-based; settings: in vivo, dose 2.5 µmol/kg
[8] = test system: HeLa; test: Induction of apoptosis in human HeLa cells assessed as late apoptotic cells at 50 nM incubated for 3 hrs with photo-irradiation at 54 J/cm2 by Annexin V-FITC/PI staining based flow cytometry relative to control; assay type: functional
[9] = test system: HeLa; test: Induction of apoptosis in human HeLa cells assessed as increase in percentage of apoptosis/necrosis at 25 nM incubated for 3 hrs with photo-irradiation at 54 J/cm2 by Annexin V-FITC/PI staining based flow cytometry relative to control; assay type: functional
[10] = test system: HeLa; test: Induction of apoptosis in human HeLa cells assessed as viable cells at 100 nM incubated for 3 hrs with photo-irradiation at 54 J/cm2 by Annexin V-FITC/PI staining based flow cytometry relative to control; assay type: functional; settings: light or radiation study, read-out: Activity
[11] = Toxicity in Balb/C nu/nu mouse xenografted with human HeLa cells assessed as change in liver histology at 2.5 umol/kg, iv with photo-irradiation at 30 J/cm2 after 1 hr of compound administration measured after 24 days by H and E staining based analysis; assay type: organism-based; settings: in vivo, 576 h, dose 2.5 µmol/kg, time 24 day
[12] = test system: HeLa; test: Induction of apoptosis in human HeLa cells assessed as late apoptotic cells at 25 nM incubated for 3 hrs with photo-irradiation at 54 J/cm2 by Annexin V-FITC/PI staining based flow cytometry relative to control; assay type: functional
[13] = test system: HeLa; test: Induction of ROS production in human HeLa cells preincubated for 2 hrs followed by H2DCFDA probe exposure for 30 mins and subsequent removal of probe with photo-irradiation at 16 J/cm2 by confocal scanning microscopic analysis; assay type: functional, cell-based; settings: dose <= 200.0 nM, time 2.5 hrs
[14] = test system: HeLa; test: Induction of apoptosis in human HeLa cells assessed as viable cells at 12.5 nM incubated for 3 hrs with photo-irradiation at 54 J/cm2 by Annexin V-FITC/PI staining based flow cytometry relative to control; assay type: functional; settings: light or radiation study, read-out: Activity
[15] = test system: HeLa; test: Induction of apoptosis in human HeLa cells assessed as early apoptotic cells at 12.5 nM incubated for 3 hrs with photo-irradiation at 54 J/cm2 by Annexin V-FITC/PI staining based flow cytometry relative to control; assay type: functional
[16] = Drug concentration in plasma of Balb/C nu/nu mouse xenografted with human HeLa cells at 2.5 umol/kg, iv measured after 24 hr by IVIS imaging analysis; assay type: ADME, organism-based; settings: in vivo, at 2.5 µmol/kg
[17] = Drug distribution in tumor of Balb/C nu/nu mouse xenografted with human HeLa cells at 2.5 umol/kg, iv measured for 24 hr by IVIS imaging analysis; assay type: ADME, organism-based, Neoplasm; settings: in vivo, dose 2.5 µmol/kg
[18] = test system: HeLa; test: Induction of ROS production in human HeLa cells upto 200 nM preincubated for 2 hrs followed by H2DCFDA probe exposure for 30 mins and subsequent removal of probe by confocal scanning microscopic analysis; assay type: functional, cell-based; settings: time 2.5 hrs
[19] = Drug distribution in Balb/C nu/nu mouse xenografted with human HeLa cells at 2.5 umol/kg, iv measured for 1 hr by IVIS imaging analysis; assay type: ADME, organism-based; settings: in vivo, dose 2.5 µmol/kg
[20] = Drug distribution in Balb/C nu/nu mouse xenografted with human HeLa cells at 2.5 umol/kg, iv measured for 24 hr by IVIS imaging analysis; assay type: ADME, organism-based; settings: in vivo, dose 2.5 µmol/kg
[21] = Drug distribution in liver of Balb/C nu/nu mouse xenografted with human HeLa cells at 2.5 umol/kg, iv measured for 1 hr by IVIS imaging analysis; assay type: ADME, organism-based; settings: in vivo, dose 2.5 µmol/kg
[22] = test system: HeLa; test: Induction of apoptosis in human HeLa cells assessed as increase in percentage of apoptosis/necrosis at 50 nM incubated for 3 hrs with photo-irradiation at 54 J/cm2 by Annexin V-FITC/PI staining based flow cytometry relative to control; assay type: functional
[23] = Drug localization in endoplasmic reticulum of human HeLa cells at 5 uM incubated for 30 mins by ER-Tracker Green dye based confocal scanning microscopic analysis; assay type: ADME; settings: 0.5 h
[24] = Drug distribution in spleen of Balb/C nu/nu mouse xenografted with human HeLa cells at 2.5 umol/kg, iv measured for 1 hr by IVIS imaging analysis; assay type: ADME, organism-based; settings: in vivo, dose 2.5 µmol/kg
[25] = Cytotoxicity against mouse B16-F10 cells assessed as inhibition of cell viability under dark condition incubated for 27 hrs by CCK8 assay; assay type: toxicity, cell-based
[26] = Cytotoxicity against human HeLa cells assessed as inhibition of cell viability under dark condition incubated for 27 hrs by CCK8 assay; assay type: toxicity, cell-based
[27] = test system: HeLa; test: Induction of apoptosis in human HeLa cells assessed as increase in percentage of apoptosis/necrosis at 12.5 nM incubated for 3 hrs with photo-irradiation at 54 J/cm2 by Annexin V-FITC/PI staining based flow cytometry relative to control; assay type: functional
[28] = test system: HeLa; test: Induction of apoptosis in human HeLa cells assessed as viable cells at 25 nM incubated for 3 hrs with photo-irradiation at 54 J/cm2 by Annexin V-FITC/PI staining based flow cytometry relative to control; assay type: functional; settings: light or radiation study, read-out: Activity
[29] = Toxicity in Balb/C nu/nu mouse xenografted with human HeLa cells assessed as change in kidney histology at 2.5 umol/kg, iv with photo-irradiation at 30 J/cm2 after 1 hr of compound administration measured after 24 days by H and E staining based analysis; assay type: organism-based; settings: in vivo, 576 h, dose 2.5 µmol/kg, time 24 day
[30] = Toxicity in Balb/C nu/nu mouse xenografted with human HeLa cells assessed as change in spleen histology at 2.5 umol/kg, iv with photo-irradiation at 30 J/cm2 after 1 hr of compound administration measured after 24 days by H and E staining based analysis; assay type: organism-based; settings: in vivo, 576 h, dose 2.5 µmol/kg, time 24 day

Drug uptake [7]: Not Active | Drug uptake [16]: 1% | Drug uptake [17]: Not Active | Drug uptake [19]: Active | Drug uptake [20]: Not Active | Drug uptake [21]: Active | Drug uptake [23]: Not Active | Drug uptake [24]: Active
Compound: COc1ccc2c(c1)CCc1c(-c3ccccc3)c3n(c1-2)[B-](F)(F)[N+]1=C(c2ccc(OCC(=O)NCCCN4CCOCC4)cc2)C(I)=C(c2ccccc2)C1=N3
Activity [1]: Active | Activity [2]: Active | IC50 [3]: 0.0072 µM | viability at 0.05 µM [4]: 25.4% | Activity [5]: 3.67% | Activity [6]: 0.57% | Activity [8]: 13.58% | Activity [9]: 13.1% | viability at 0.1 µM [10]: 9.73% | Activity [11]: Non-Toxic | Activity [12]: 12.87% | Activity [13]: Dose-Dependent Effect | viability at 0.0125 µM [14]: 88.1% | Activity [15]: 5.28% | Activity [18]: inactive | Activity [22]: 41.8% | IC50 at 27 h [25]: > 50 µM | IC50 at 27 h [26]: > 50 µM | Activity [27]: 10.9% | viability at 0.025 µM [28]: 47% | Activity [29]: Non-Toxic | Activity [30]: Non-Toxic
